What was measured:
[1] = test system: HCT116 IDH1-WT and -mutant tumors; experiment: In vivo BMN 673 efficacy study, subcutaneous flank xenografts; design: species or system nude mice; settings: BMN-673 0.33 mg/kg oral gavage once daily for 21 days vs vehicle
Protocol: All animal experiments were performed in compliance with our institution's IACUC committee. Four week-old female athymic nu/nu mice were used for all in vivo xenograft studies. Mice were quarantined for at least 1 week before experimental manipulation. Human HCT116 cells (with and without IDH1 mutation) were implanted subcutaneously (3-5×10^6 cells in 0.1 cc PBS) in the right flank of nude mice. When tumors reached an average volume of approximately 100 mm^3, mice were randomized into various treatment groups (5-7 mice/group) in each study. Animals were not randomized, but were grouped based on tumor size such that tumors were roughly equivalent in size when treatment was begun. The investigator was not blinded throughout the experiment. Mice were visually observed daily and tumors were measured three times per week by calipers to determine tumor volume using the formula: […]
BMN 673 was solubilized in DMSO and diluted with PBS containing 10% dimethylacetamide (Sigma-Aldrich) and 6% Solutol (Sigma-Aldrich). […] Tumor tripling time was calculated as the time required for tumors to increase in volume threefold over baseline at the time of treatment initiation. P-values were determined by Mann-Whitney U test (Stata). Kaplan-Meier curves were generated with survival fraction determined by the number of mice alive with tumor volume smaller than three times the initial pre-treatment volume. […]

[2] = test system: wild-type or IDH1-R132H heterozygous astrocytes; experiment: Short-term growth delay assay, astrocytes; type: cell-based, Human; settings: for sensitization of IDH1-mutant versus WT cells to single DNA damaging agent: FIG. 6A, single agents
Protocol: Cells were plated in 96-well black-walled plates (Costar) at a concentration of 2.5 k/well and allowed to adhere at room temperature for 60 minutes prior to return to the incubator. […] For synergy experiments, cells were replica-plated and drugs added in single wells at the indicated concentrations. At 96 hours after the addition of drugs, cells were washed in PBS, fixed in 70% ethanol, and stained with Hochst at 1 μg/mL. The plates were then imaged on a Cytation 3 automated imager (BioTek), and cells were counted using CellProfiler (cellprofiler.org/). Each experiment was performed three times and values from a representative experiment are reported as mean±SEM. For synergy experiments, experiments were analyzed for synergistic interactions using Combenefit (www.cruk.cam.ac.uk/research-groups/jodrell-group/combenefit).

[3] = test system: wild-type and IDH1-R132H heterozygous HCT116 cells; experiment: Short-term growth delay assay, HCT116; type: cell-based, Human
Protocol: Cells were plated in 96-well black-walled plates (Costar) at a concentration of 2.5 k/well and allowed to adhere at room temperature for 60 minutes prior to return to the incubator. For growth delay assays containing octyl-(R)-2HG, cells were cultured with indicated concentration for 10 days prior to plating. 24 hours later, the media was changed and indicated drugs dissolved in either DMSO or DMF (cisplatin only) were added in quadruplicate at varying concentrations. For synergy experiments, cells were replica-plated and drugs added in single wells at the indicated concentrations. At 96 hours after the addition of drugs, cells were washed in PBS, fixed in 70% ethanol, and stained with Hochst at 1 μg/mL. The plates were then imaged on a Cytation 3 automated imager (BioTek), and cells were counted using CellProfiler (cellprofiler.org/). Each experiment was performed three times and values from a representative experiment are reported as mean±SEM. For synergy experiments, experiments were analyzed for synergistic interactions using Combenefit (www.cruk.cam.ac.uk/research-groups/jodrell-group/combenefit).

[4] = test system: wild-type or IDH1-R132H heterozygous astrocytes; experiment: Long-term colony forming (clonogenic survival) assay, astrocytes; type: cell-based, Human; settings: FIG. 2B
Protocol: (§1) Cells were counted and diluted in media containing various concentration of drug. They were then immediately seeded in 6-well plates in triplicate at 3-fold dilutions, ranging from 9000 to 37 cells per well. These plates were kept in the incubator for 10 to 14 days, following which they were washed in PBS, stained with Crystal Violet, and quantified. Each experiment was performed twice, and values reported are mean ±standard deviation.

[5] = test system: wild-type or IDH1-R132H heterozygous HCT116 cells; experiment: Long-term colony forming assay, HCT116; type: cell-based, Human; settings: FIG. 5E; at 10 nM BMN-673
Protocol: as §1

[6] = test system: IDH1-WT U2OS DR-GFP cells; experiment: Neutral comet assay, U2OS; type: cell-based; settings: 24 h exposure to DMOG
Protocol: (§2) Neutral comet assays were performed per manufacturer's protocol (Trevigen). Briefly, cells were trypsinized, washed with PBS and suspended in LM Agarose (Trevigen). Neutral electrophosesis was conducted at 21V for 1 hour in the CometAssay Electrophoresis System (Trevigen). Data were collected with an EVOS FL microscope (Advanced Microscopy Group) and analyzed using AutoComet software (TriTek Corporation). For each experiment, three biological replicates each with >50 cells were measured, and reported values are mean±SEM.

[7] = test system: homologous recombination (HR) in U2OS DR-GFP cells; experiment: U2OS DR-GFP chromosomal HR reporter assay; type: cell-based; settings: for suppression of HR: after 10 days of culture in 300 μM octyl-(R)-2-hydroxyglutarate vs DMSO
Protocol: These reporter assays are carried out as previously described ([…] et al., Molecular cancer research: MCR 13, 1389-1397 (2015)). Briefly, after 10 days of culture in (2R)-Octyl-alpha-hydroxyglutarate (Cayman), 1×10^6 cells were transfected in triplicate with 4 μg pI-SceI using the Amaxa Nucleofector II and Nucleofection Kit V (Lonza) per manufacturer's protocol. 72 h after transfection, cells were analyzed for GFP expression using flow cytometry, and the data was analyzed using FlowJo software to calculate %GFP positive cells. Values reported are mean±SEM.

[8] = test system: WT and R132H/+ HCT116 cells; experiment: Neutral comet assay, HCT116; type: cell-based, Human
Protocol: as §2

Compound: Cn1ncnc1[C@H]1c2n[nH]c(=O)c3cc(F)cc(c23)N[C@@H]1c1ccc(F)cc1 [BMN-673]
- tumor growth in IDH1-WT tumors ([1]; HCT116 IDH1-WT xenografts): minimal effects
- tumor growth in IDH1-mutant tumors ([1]; HCT116 IDH1-mutant xenografts): significant growth delay
- decrease in IC50 in R132H mutants versus wild-type ([2]; FIG. 2A, BMN-673 dose response, 96 hours after addition of drug): four-fold decrease in IC50
- difference in IC50 between wild-type and IDH1-R132H heterozygous HCT116 ([3]; FIG. 5D): nearly eight-fold difference in IC50
- increase in sensitivity of IDH1-R132H versus wild-type astrocytes ([4]; at 10 nM BMN-673): ten-fold increase in sensitivity
- decrease in cell survival of IDH1-mutant compared to WT cells ([4]; clonogenic survival, dose of 10 nM): 10 fold
- difference in cell viability between wild-type and IDH1-R132H heterozygous HCT116 [5]: roughly ten-fold difference in cell viability

Compound: COC(=O)CNC(=O)C(=O)OC [DMOG, dimethyloxalylglycine]
- baseline DSBs [6]: dose dependent increase in baseline DSBs
- HR activity ([7]; 24 h pretreatment with DMOG): dose dependent HR suppression

Compound: N.N.[Cl][Pt][Cl] [cisplatin]
- synergy between BMN-673 and cisplatin ([2]; FIG. 2F, 8 nM BMN-673 and 1 cisplatin, IDH1 wild-type vs IDH1-R132H astrocytes): IDH1-R132H-dependent synergy
- sensitization of IDH1-mutant versus WT cells to single DNA damaging agent [2]: modest, but detectable sensitization
- synergistic interaction with BMN-673 in IDH1-mutant tumor cells ([2]; FIGS. 2E-F, 6B (cisplatin, astrocytes), FIG. 6C (TMZ, IDH1-R132H HCT116), Combenefit analysis): dramatic synergistic interaction

Compound: O=[N+]([O-])c1cc([N+](=O)[O-])c(/C=C/c2ccc(Cl)c(Cl)c2)cc1/C=C/c1ccc(Cl)c(Cl)c1 [NSC-636819]
- doses at which the increase in DSBs was observed ([8]; HCT116 IDH-WT cells): 12.5 to 50 µM
- DSBs (comet tail moment) in HCT116 IDH-WT cells ([8]; NSC-636819 treatment, HCT116 IDH-WT): dose-dependent increase in elevated DSBs, which approached the levels seen in untreated HCT116 IDH-mutant cells
- comet tail moments in HCT116 IDH-mutant cells ([8]; NSC-636819 treatment, HCT116 IDH-mutant): did not further increase comet tail moments

Compound: CCc1c2c(nc3ccc(OC(=O)N4CCC(N5CCCCC5)CC4)cc13)-c1cc3c(c(=O)n1C2)COC(=O)[C@]3(O)CC [irinotecan]
- sensitization of IDH1-mutant versus WT cells to single DNA damaging agent [2]: modest, but detectable sensitization

Compound: COS(C)(=O)=O [MMS, Methyl methanesulfonate]
- sensitization of IDH1-mutant versus WT cells to single DNA damaging agent [2]: modest, but detectable sensitization

Compound: O=C(O)CCC(O)C(=O)O (stereo not drawn) [2-HG, 2-hydroxyglutarate]
- PARP inhibitor (BMN-673) sensitivity of WT cells after 2-HG treatment ([3]; FIGS. 2C-2D, wild-type HCT116, octyl-(R)-2HG with 300 nM BMN-673, or 900 μM octyl-(R)-2HG with BMN-673 dose response): recapitulate the enhanced PARP inhibitor sensitivity seen in IDH1-mutant cells
- ability of treatment alone to reproduce the IDH1-associated HR defect ([7]; FIG. 1I, FIGS. 3H-3I, wild-type cells): recapitulate the IDH1-associated HR defect
- suppression of HR ([7]; FIG. 1I): dramatic, and it approached levels seen with siRNAs targeting two key HR genes, RAD51 and BRCA2

Compound: (2R)-octyl-α-hydroxyglutarate [octyl-(R)-2-hydroxyglutarate]
- suppression of HR ([7]; FIG. 1I): comparable in magnitude to RAD51 or BRCA2 suppression by siRNA knockdown
